Reference: paper PMC8006777 (Journal of the American Chemical Society, 2020)

Target: MPP1 (Manganese Porphyrin-binding Protein 1)
Test: UV-vis absorption titration
Design: species or system synthetic construct

C1=CC2=[N+]3C1=Cc1ccc4[n]1[Mn-]31[n]3c(ccc3=C2c2ccccc2)=CC2=[N+]1C(=C4c1ccccc1)C=C2 (stereo not shown) [Mn(III)DPP] was tested, and the Kd was 122 ± 19 nM.
